{
  "source": "paper PMC5679103",
  "about": "(Journal of natural products, 2017)",
  "key": {"P. falciparum Dd2 strain": {"system": "P. falciparum Dd2 strain", "assay": "Antiplasmodial 72 h growth assay", "assay_type": "cell-based, Plasmodium falciparum", "settings": "relative to trichospirolide B (2)"}, "Stability on storage": {"assay": "Stability on storage", "assay_type": "physicochemical", "settings": "storage at −23 °C"}},
  "data": [
    {"smiles": "C=C(C)C(=O)O[C@H]1C/C(C)=C\\C(=O)/C=C(C)/C=C2/OC(=O)C(COC(C)=O)=C21", "note": "[Compound 1, 1(10)Z,3E,5E,7(12)Z-(8S)-13-acetoxy-8-methacryloyloxy-2-oxogermacra-1,3,5,7-tetraen-6,12-olide]", "values": [
      {"measurement": "Fold higher antiplasmodial potency than trichospirolide B", "setting": "P. falciparum Dd2 strain", "value": 25, "unit": "fold"}
    ]},
    {"smiles": "C=C(C)C(=O)O[C@H]1C/C(C)=C\\C(=O)C[C@@]2(C)O[C@H]2[C@H]2OC(=O)C(COC(C)=O)=C12", "note": "[Compound 3, 1(10)Z,7(11)Z-(4R,5S,6S,8S)-13-acetoxy-4,5-epoxy-8-methacryloyloxy-2-oxogermacra-1,7-dien-6,12-olide]", "values": [
      {"measurement": "Fold higher antiplasmodial potency than trichospirolide B", "setting": "P. falciparum Dd2 strain", "value": 3, "unit": "fold"}
    ]},
    {"smiles": "C=C(C)C(=O)O[C@@H]1C/C(C)=C\\[C@@]2(O)C=C(C)[C@H](O2)[C@H]2OC(=O)C(COC(C)=O)=C12", "note": "[Compound 4, 1(10)Z,3Z,7(11)Z-(2S,5S,6S,8R)-13-acetoxy-2,5-epoxy-2-hydroxy-8-O-methacryloyloxygermacra-1(10),3,7(11)-trien-6,12-olide]", "values": [
      {"measurement": "Stability on storage", "setting": "Stability on storage", "value": "moderately unstable"}
    ]}
  ]
}
